Test results reported in US20260234150A1, “COMPOUND FOR INHIBITING NLRP3, PREPARATION METHOD, AND USE” (DOVETREE MEDICINES UNUS, INC., priority 2023, published 2026).

How the values were obtained:
[1] = system: iodoacetic acid (MIA)-induced SD rat knee osteoarthritis model; assay: Iodoacetic acid (MIA)-induced SD rat knee osteoarthritis model; type: in vivo, SD rats; conditions: 30 mg/kg orally once a day from Day 7 to Day 42
Description: Purpose: Evaluate the efficacy of MCC950 (Positive reference compound) and compound 111 of the present disclosure on iodoacetic acid (MIA)-induced SD rat knee osteoarthritis model.
Experimental materials: Experimental male SD rats, 4 weeks old.
Model induction began after the experimental animals were adapted to the animal environment for 7 days. Day 0, the rats were anesthetized, the hair around the left knee joint was removed, and the skin was disinfected. The left leg was flexed 90° to expose the patellar platform. The depression in the middle of the platform was touched by hand to find the femoral condyle, patella and ligament. The syringe needle was inserted from the bottom of the patella on both sides of the patellar ligament to the direction of the femoral condyle. When a clear sense of empty space was felt, 50 μL of iodoacetic acid solution was injected. Day 7 Grouping was performed according to the width of the knee joint on the induced side. The groups were: normal control group (healthy control without modeling, 5% DMSO+10% Solutol+85% Saline), model blank control group (5% DMSO+10% Solutol+85% Saline), MCC950 30 mg/kg, and compound 111 of the present disclosure 30 mg/kg. Starting from Day 7, the normal control group and the model blank control group were given the solvent (5% DMSO+10% Solutol+85% Saline) orally once a day, and the other groups were given the corresponding compounds orally once a day until the end of the administration on Day 42. The knee joint width and body weight of the rats were measured once on Day 7, 14, 21, 28, 35, and 42.

hERG ion channel = target: T1, hERG ion channel (Homo sapiens, UniProt Q12809); assay: hERG ion channel inhibition, manual patch clamp in HEK293 cells; type: cell-based; conditions: HEK293 cells stably expressing hERG, read-out: hERG(IC50, manupatch)
T1 construct: host or cells: HEK293
Description: This experiment used manual patch clamp electrophysiology to detect the inhibitory effect of compounds on hERG ion channels, and evaluated cardiac safety based on the single concentration inhibition rate or IC50 size of the compounds.
The cells used in this experiment are HEK293 cell lines transfected with hERG cDNA and stably expressing hERG channels (#60187, provided by BPS, P3-P23 generations are used for experimental research). Cells were cultured in a medium containing the following components: MEM medium, 10% (v/v) inactivated fetal bovine serum, 1 mM sodium pyruvate, […] geneticin, 0.1 mM non-essential amino acids, and 100 U penicillin-streptomycin. HEK293 hERG cells were grown in culture flasks containing the above culture medium and cultured in an incubator at 37° C. and 5% CO2. […]
The electrophysiological experiments were performed by a manual patch clamp system (HEKAEPC-10 signal amplifier and digital conversion system, purchased from HEKA Electronics, Germany) to record the whole-cell current. […] After the hERG current recorded in the above steps reaches stability under continuous perfusion of extracellular fluid in the recording tank, different concentrations of the test compound can be perfused until the inhibitory effect of the drug on the hERG current reaches a stable state. […]

[2] = target: T2, His6-Flag-TEV-NLRP3 (134-1036) (Homo sapiens, UniProt Q96P20); assay: NLRP3 fluorescence polarization (FP) binding assay, competition with probe NP3-301; conditions: competition with NP3-301 for binding to NLRP3 (134-1036), 30 nM protein
T2 construct: fused on or other part: N-terminal His6 tag, Flag tag and TEV cleavage site
Description: This experiment uses fluorescence polarization technology to detect and evaluate the binding assay.
The fluorescent probe used in this assay is the compound NP3-301 in the Journal of Molecular Biology (2021) 433, 167309, which was synthesized with reference to this literature.
His6-Flag-TEV-NLRP3 (134-1036) protein (SEQ NO. 1) was purchased from Kaihuiruizhi Biotech (Shanghai) Co., Ltd. (ChemPartner), and was customed for expression.
Prepare 1× assay buffer: 50 mM Hepes, pH 7.4, 150 mM NaCl, 2.5 mM MgCl2, 0.005% Tween-20, 1 mM TCEP, 100 μM ATP.
First, 2.5 μL of 4× compound solution was added to a black shallow 384-well plate (Greiner, 784076), the shallow well plate was sealed, and centrifuged at 1000 rpm for 1 min; then 2× NLPR3 protein solution (final concentration of 30 nM) was added, the shallow well plate was sealed, centrifuged at 1000 rpm for 1 min, and incubated at room temperature for 60 min. Finally, 2.5 μL of 4× NP3-301 (final concentration of 0.5 nM) was added, the shallow well plate was sealed, centrifuged at 1000 rpm for 1 min, and incubated at room temperature for 30 min. Envision was used to read the fluorescence polarization values of λex=485+20 nm and kem=535+25 nm. GraphPad Prism 9.5.0 was used to analyze the data, and the IC50 value of the competition between the compound and NP3-301 for binding to His6-Flag-TEV-NLRP3 (134-1036) was fitted by four-parameter logistic. The compounds of the present disclosure have good NLRP3 binding activity, and the test results of some representative compounds are shown in Table 1.

[3] = system: IL-1β secretion of THP-1 cells; assay: Effect of NLRP3 inhibitor on IL-1β secretion of THP-1 cells (AlphaLISA); type: cell-based; conditions: Homo sapiens; PMA, LPS and Nigericin stimulated THP-1 cells, IL-1β in supernatant; read-out: IC50 (nM), THP-1 cells to detect NLRP3 inhibitors
Description: This experiment used the PerkinElmer AlphaLISA_human_IL1β kit (AL220 C/F). The detection buffer was RPMI-1640+10FBS. AlphaLISA Immunoassay Buffer, AlphaLISA Anti-IL1β Acceptor beads, Streptavidin (SA)-coated Donor beads, and Biotinylated Antibody Anti-IL1β were all included in the kit.
The density of THP1 cells was adjusted to 4×10^5 cells/mL, PMA (final concentration 50 nM) was added, inoculated into 96-well flat-bottom plates at 200 μL/well, and stimulated overnight at 37° C., 5% CO2 (try to <16h). The next day, the supernatant was discarded, and the flat washed twice with DPBS ([…]/time). Then LPS solution (final concentration of 100 ng/ml) was added at 198 μL/well, incubated at 37° C., 5% CO2 for 3h. 1 μL of the corresponding concentration of compounds was added to each well according to the experimental MAP, incubated at 37° C., 5% CO2 for 1 h. 1 μL Nigericin (final concentration of […]) was added to each well, incubated overnight at 5% CO2 (>18h). On the third day, 5 μL of supernatant was taken, diluted 20 times, and the content of IL-Iβ in the supernatant was detected by Human Interleukin 1 beta (IL1β) Kit. Envision was used to read the AlphaLISA test value of Ex=680/[…]. GraphPad Prism 9.5.0 was used to analyze the data, and the IC50 value of the compound for IL-Iβ antagonism was fitted by four-parameter Logistic.

T2 sequence (Q96P20 134-1036 limits assumed): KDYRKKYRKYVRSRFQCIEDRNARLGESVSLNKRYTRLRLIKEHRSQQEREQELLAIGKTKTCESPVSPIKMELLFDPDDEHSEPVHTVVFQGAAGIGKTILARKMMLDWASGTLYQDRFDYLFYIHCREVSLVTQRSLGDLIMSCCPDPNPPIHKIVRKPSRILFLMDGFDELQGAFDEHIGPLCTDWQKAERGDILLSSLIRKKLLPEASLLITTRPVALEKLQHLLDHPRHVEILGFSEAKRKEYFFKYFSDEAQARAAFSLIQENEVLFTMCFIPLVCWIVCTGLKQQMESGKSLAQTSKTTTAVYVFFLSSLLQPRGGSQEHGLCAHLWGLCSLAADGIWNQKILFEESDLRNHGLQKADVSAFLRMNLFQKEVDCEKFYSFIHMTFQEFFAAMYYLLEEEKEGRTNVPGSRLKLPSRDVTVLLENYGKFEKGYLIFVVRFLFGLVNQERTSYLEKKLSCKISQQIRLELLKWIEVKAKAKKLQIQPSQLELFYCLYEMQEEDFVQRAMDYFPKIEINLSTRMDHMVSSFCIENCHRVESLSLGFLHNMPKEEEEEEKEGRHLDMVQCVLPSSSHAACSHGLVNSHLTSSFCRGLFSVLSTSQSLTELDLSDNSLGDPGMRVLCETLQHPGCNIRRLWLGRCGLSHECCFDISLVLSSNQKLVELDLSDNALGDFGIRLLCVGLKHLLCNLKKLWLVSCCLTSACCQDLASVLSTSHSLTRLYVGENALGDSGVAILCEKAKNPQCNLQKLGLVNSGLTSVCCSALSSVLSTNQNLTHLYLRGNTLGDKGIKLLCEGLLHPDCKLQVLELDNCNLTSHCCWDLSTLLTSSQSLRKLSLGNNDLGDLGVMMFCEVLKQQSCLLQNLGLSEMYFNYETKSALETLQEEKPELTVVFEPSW
T1 sequence (Q12809 whole entry): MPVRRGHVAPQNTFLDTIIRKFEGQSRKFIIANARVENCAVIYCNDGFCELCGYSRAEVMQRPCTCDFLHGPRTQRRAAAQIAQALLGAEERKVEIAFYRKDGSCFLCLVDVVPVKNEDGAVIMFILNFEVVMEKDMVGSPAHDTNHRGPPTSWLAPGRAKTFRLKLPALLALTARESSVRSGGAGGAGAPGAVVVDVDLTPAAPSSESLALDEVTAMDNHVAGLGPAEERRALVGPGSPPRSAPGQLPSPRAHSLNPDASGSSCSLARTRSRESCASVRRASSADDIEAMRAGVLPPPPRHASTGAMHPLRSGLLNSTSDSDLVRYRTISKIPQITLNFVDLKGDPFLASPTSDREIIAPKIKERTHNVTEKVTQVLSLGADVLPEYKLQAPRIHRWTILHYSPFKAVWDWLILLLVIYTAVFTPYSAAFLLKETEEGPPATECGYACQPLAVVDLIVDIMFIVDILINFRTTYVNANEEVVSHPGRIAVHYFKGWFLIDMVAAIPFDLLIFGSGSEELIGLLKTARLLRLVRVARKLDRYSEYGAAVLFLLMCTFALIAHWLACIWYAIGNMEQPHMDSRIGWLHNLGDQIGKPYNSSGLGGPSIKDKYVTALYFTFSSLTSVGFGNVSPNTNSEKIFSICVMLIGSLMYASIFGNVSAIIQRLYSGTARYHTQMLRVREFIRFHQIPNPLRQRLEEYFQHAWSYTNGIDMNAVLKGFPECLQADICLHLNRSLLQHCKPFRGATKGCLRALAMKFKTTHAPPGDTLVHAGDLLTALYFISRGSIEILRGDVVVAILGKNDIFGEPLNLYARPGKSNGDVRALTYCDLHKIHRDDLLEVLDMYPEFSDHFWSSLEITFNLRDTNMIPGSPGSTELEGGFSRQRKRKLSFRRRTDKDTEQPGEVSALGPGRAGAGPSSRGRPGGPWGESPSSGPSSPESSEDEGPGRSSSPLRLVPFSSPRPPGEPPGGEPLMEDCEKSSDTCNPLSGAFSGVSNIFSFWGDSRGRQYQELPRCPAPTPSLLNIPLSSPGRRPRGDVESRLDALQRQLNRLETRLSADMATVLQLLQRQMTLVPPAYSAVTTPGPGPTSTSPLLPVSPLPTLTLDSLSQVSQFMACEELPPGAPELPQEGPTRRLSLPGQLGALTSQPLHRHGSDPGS

SMILES	body weight of the rats [1]	widening of the knee joints (knee joint width) ([1]; compared with model blank control group, 21 days to 42 days after modeling)	IC50 (hERG ion channel)	IC50 [2]	IC50 [3]
CC(C)(O)c1coc(S(=O)(=O)NC(=O)Nc2c3c(cc4c2CCC4)CCC3)c1 [MCC950]	without affecting the body weight of the rats	could significantly inhibit the widening of the knee joints	–	–	–
Cc1cc(C(F)(F)F)cc(O)c1-c1ccc2oc(N3CCS(=O)(=O)CC3)nc2n1 [Compound 384]	–	–	> 30000 nM	≤ 100 nM	< 50 nM
CCN1CCC[C@@H](N2CC(=O)Nc3cc(-c4c(C)cc(C(F)(F)F)cc4O)nnc32)C1 [Compound 12-a]	–	–	–	≤ 100 nM	< 50 nM
